These results are taken from ChEMBL document CHEMBL1157733, “Isolation, structure, and bioactivities of abiesadines A-Y, 25 new diterpenes from Abies georgei Orr” (Bioorg Med Chem, 2010).

Assay [1] is described as follows: Inhibition of TNF-alpha-induced NF-kappaB activity in human pNF-kappaB-luc-293 cells. Particulars: HEK293. Format: cell-based.
In assay [2] the test system is LoVo. Nature of the assay: Antiproliferative activity against human LoVo cells. Format: functional, cell-based.
A short description of assay [3]: Antiproliferative activity against human QGY7703 cells. It counts as functional, cell-based. The settings on record: QGY-7703.
Assay [4] relates to RAW264.7. Nature of the assay: Antiinflammatory activity in mouse RAW264.7 cells assessed as inhibition of LPS-induced NO release. It counts as functional, cell-based.

Values after ≈ are worked out from the molar mass of the structure shown. Where only a bound is given, the exact number is not on record here.

The term IC50 denotes the concentration needed to halve the response being measured. As to `COC(C)(C)c1ccc2c(c1)CC[C@H]1[C@](C)(COC(=O)CCC(=O)O)CCC[C@]21C` [ABIESADINE J], the IC50 in assay [1] is > 100 µg/mL; in assay [2], > 25 µg/mL; in assay [3], > 25 µg/mL; in assay [4], > 100 µg/mL.

Turning to `CC(C)[C@]12O[C@H]1CC1[C@@]3(C)CCC[C@@](C)(C(=O)O)[C@@H]3CC[C@@]1(O)[C@H]2O` (some centres undefined) [ABIESADINE C], the IC50 in assay [1] was > 100 µg/mL; in assay [2] it was > 25 µg/mL; in assay [3], > 25 µg/mL; in assay [4], > 100 µg/mL.

With `CC(C)c1ccc2c(c1)[C@@H](O)C[C@H]1[C@](C)(CO)CCC[C@]21C`, the IC50 in assay [1] was > 100 µg/mL; in assay [2], > 25 µg/mL; in assay [3], > 25 µg/mL; in assay [4] it was > 100 µg/mL.

Regarding `COc1cccc2c1C(=O)c1c(O)c3c(c(O)c1C2=O)C[C@@](O)(C(=O)CO)C[C@@H]3O[C@H]1C[C@H](N)[C@H](O)[C@H](C)O1` [DOXORUBICIN], the IC50 in assay [2] came out at 0.55 µg/mL (≈ 1.01 µM); in assay [3], 0.42 µg/mL (≈ 0.773 µM).

As for `CC(C)c1ccc2c(c1)[C@@H](O)C[C@H]1[C@](C)(C(=O)O)CCC[C@]21C`, the half-maximal inhibitory concentration (IC50) in assay [1] is > 100 µg/mL; in assay [2] it was > 25 µg/mL; in assay [3], > 25 µg/mL; in assay [4], > 100 µg/mL.

`COC(=O)CCC(=O)OC[C@]1(C)CCC[C@]2(C)c3ccc(C(C)C)cc3[C@H](O)C[C@@H]12` [ABIESADINE H]: the half-maximal inhibitory concentration (IC50) in assay [1] was > 100 µg/mL; in assay [2], > 25 µg/mL; in assay [3], > 25 µg/mL; in assay [4] it was 83.4 µg/mL (≈ 200 µM).

In the case of `CO[C@@H]1C[C@H]2[C@](C)(COC(=O)CCC(=O)O)CCC[C@]2(C)c2ccc(C(C)C)cc21` [ABIESADINE G], the IC50 in assay [1] was > 100 µg/mL; in assay [2] it was > 25 µg/mL; in assay [3], > 25 µg/mL; in assay [4], > 100 µg/mL.

With `CC(C)[C@]12CC[C@@]3(O1)[C@@]1(C)CCC[C@@](C)(C(=O)O)[C@@H]1CC[C@]3(O)[C@H]2O` [ABIESADINE D], the IC50 in assay [1] is > 100 µg/mL; in assay [2], > 25 µg/mL; in assay [3], > 25 µg/mL; in assay [4] it was > 100 µg/mL.

Consider `C/C(=C\CO)CCC1[C@](C)(O)CC[C@H]2C(C)(C)CCC[C@]12C` (some centres undefined), for which the IC50 in assay [1] is > 100 µg/mL; in assay [2], > 25 µg/mL; in assay [3], > 25 µg/mL; in assay [4], > 100 µg/mL.

For `CC(C)[C@]12C=C3CC[C@H]4[C@](C)(COC(=O)CCC(=O)O)CCC[C@]4(C)[C@@]3(CC1)OO2` [ABIESADINE W], the IC50 was > 100 µg/mL in assay [1], > 25 µg/mL in assay [2], > 25 µg/mL in assay [3] and > 100 µg/mL in assay [4].

As to `C=C[C@@](C)(O)CC[C@H]1C(=C)CC[C@H]2[C@](C)(COC(=O)CCC(=O)OC)CCC[C@]12C` [ABIESADINE Y], the IC50 in assay [1] was 22.4 µg/mL (≈ 53.3 µM); in assay [2], 10.6 µg/mL (≈ 25.2 µM); in assay [3] it was > 25 µg/mL; in assay [4] it was 48.5 µg/mL (≈ 115 µM).

With `CC(C)(O)c1ccc2c(c1)[C@H](O)C[C@H]1[C@](C)(C(=O)O)CCC[C@]21C`, the IC50 is > 100 µg/mL in assay [1], > 25 µg/mL in assay [2], > 25 µg/mL in assay [3] and > 100 µg/mL in assay [4].

With `CC(C)C1=CC[C@H]2C(=C1)C(=O)C[C@@H]1[C@]2(C)CCC[C@@]1(C)C(=O)O` [ABIESADINE E], the IC50 is > 100 µg/mL in assay [1], > 25 µg/mL in assay [2], > 25 µg/mL in assay [3] and > 100 µg/mL in assay [4].

With `COC(=O)CCC(=O)OC[C@]1(C)CCC[C@]2(C)c3ccc(C(C)(C)O)cc3C(=O)C[C@@H]12` [ABIESADINE S], the IC50 was > 100 µg/mL in assay [1], > 25 µg/mL in assay [2], > 25 µg/mL in assay [3] and 49 µg/mL (≈ 114 µM) in assay [4].

`CC(C)C1=CC2=CC[C@H]3[C@](C)(COC(=O)CCC(=O)O)CCC[C@]3(C)[C@H]2CC1`: the IC50 in assay [1] is > 100 µg/mL; in assay [2], > 25 µg/mL; in assay [3], > 25 µg/mL; in assay [4] it was > 100 µg/mL.

On to `COC(C)(C)c1ccc2c(c1)CC[C@H]1[C@](C)(C(=O)O)CCC[C@]21C` [ABIESADINE N], for which the IC50 is > 100 µg/mL in assay [1], > 25 µg/mL in assay [2], > 25 µg/mL in assay [3] and > 100 µg/mL in assay [4].

Take `CC(C)/C(C=O)=C\C[C@H]1C(=O)CC[C@@H]2[C@]1(C)CCC[C@@]2(C)C(=O)O` [ABIESADINE A]: the IC50 in assay [1] is > 100 µg/mL; in assay [2], > 25 µg/mL; in assay [3] it was > 25 µg/mL; in assay [4], > 100 µg/mL.

`CC(C)[C@]12C=C3CC[C@H]4[C@](C)(C(=O)O)CCC[C@]4(C)[C@@]3(CC1)OO2`: the IC50 in assay [1] is > 100 µg/mL; in assay [2], > 25 µg/mL; in assay [3], > 25 µg/mL; in assay [4] it was > 100 µg/mL.

With `CC(C)C1=CC2=CC[C@@H]3[C@](C)(CCC[C@@]3(C)C(=O)O)[C@H]2CC1` [ABIETIC ACID], the IC50 in assay [1] is > 100 µg/mL; in assay [2] it was > 25 µg/mL; in assay [3], > 25 µg/mL; in assay [4] it was > 100 µg/mL.

On to `CC(C)c1ccc2c(c1)[C@H](O)C[C@H]1[C@](C)(CO)CCC[C@]21C`, for which the IC50 was > 100 µg/mL in assay [1], 9.2 µg/mL (≈ 30.4 µM) in assay [2], > 25 µg/mL in assay [3] and > 100 µg/mL in assay [4].

`COC(C)(C)c1ccc2c(c1)[C@H](O)C[C@H]1[C@](C)(C(=O)O)CCC[C@]21C` [ABIESADINE O]: the IC50 in assay [1] was > 100 µg/mL; in assay [2], > 25 µg/mL; in assay [3], > 25 µg/mL; in assay [4], > 100 µg/mL.

For the compound `CC(C)c1ccc2c(c1)C(=O)C[C@H]1[C@](C)(COC(=O)CCC(=O)O)CCC[C@]21C` [ABIESADINE Q], the IC50 is > 100 µg/mL in assay [1], > 25 µg/mL in assay [2], > 25 µg/mL in assay [3] and > 100 µg/mL in assay [4].

Turning to `CC(C)[C@@]12C=C3CC[C@H]4[C@](C)(C(=O)O)CCC[C@]4(C)[C@]3(CC1)OO2`, the half-inhibitory concentration (IC50) in assay [1] was > 100 µg/mL; in assay [2] it was > 25 µg/mL; in assay [3], > 25 µg/mL; in assay [4], > 100 µg/mL.

Regarding `CC(C)(O)c1ccc2c(c1)C(=O)C[C@H]1[C@](C)(COC(=O)CCC(=O)O)CCC[C@]21C` [ABIESADINE R], the IC50 in assay [1] was > 100 µg/mL; in assay [2], > 25 µg/mL; in assay [3] it was > 25 µg/mL; in assay [4] it was > 100 µg/mL.

Take `COC(=O)CCC(=O)OC[C@]1(C)CCC[C@]2(C)c3ccc(C(C)(C)O)cc3CC[C@@H]12` [ABIESADINE K]: the IC50 in assay [1] was > 100 µg/mL; in assay [2], > 25 µg/mL; in assay [3] it was > 25 µg/mL; in assay [4], 52.1 µg/mL (≈ 125 µM).

In the case of `C=C[C@@](C)(O)CC[C@@H]1[C@@]2(C)CCCC(C)(C)[C@@H]2CC[C@@]1(C)O`, the IC50 in assay [2] was 13 µg/mL (≈ 42.1 µM); in assay [3] it was > 25 µg/mL.

`CC(C)c1ccc2c(c1)CC[C@H]1[C@](C)(CO)CCC[C@]21C` [POMIFERIN A]: the IC50 in assay [1] is > 100 µg/mL; in assay [2], 9.2 µg/mL (≈ 32.1 µM); in assay [3], > 25 µg/mL; in assay [4], > 100 µg/mL.

With `C=C/C(C)=C\CC1[C@](C)(O)CC[C@H]2C(C)(C)CCC[C@]12C` (some centres undefined), the IC50 was > 100 µg/mL in assay [1], 20.3 µg/mL (≈ 69.9 µM) in assay [2], 25 µg/mL (≈ 86.1 µM) in assay [3] and > 100 µg/mL in assay [4].

As for `N=C(N)NN` [PIMAGEDINE], in assay [4], the IC50 was found to be 3.3 µg/mL (≈ 44.5 µM).

Consider `CC(C)c1ccc2c(c1)[C@H](O)C[C@H]1[C@](C)(C(=O)O)CCC[C@]21C`, for which the IC50 in assay [1] was > 100 µg/mL; in assay [2] it was > 25 µg/mL; in assay [3] it was > 25 µg/mL; in assay [4] it was > 100 µg/mL.

Consider `CC(C)(O)C1=CC2=CC[C@@H]3[C@](C)(CCC[C@@]3(C)C(=O)O)[C@H]2CC1=O`, for which the IC50 in assay [1] was > 100 µg/mL; in assay [2], > 25 µg/mL; in assay [3], > 25 µg/mL; in assay [4], > 100 µg/mL.

For `CC(C)(O)c1ccc2c(c1)[C@H](O)C[C@H]1[C@](C)(COC(=O)CCC(=O)O)CCC[C@]21C` [ABIESADINE L], the IC50 in assay [1] is > 100 µg/mL; in assay [2] it was > 25 µg/mL; in assay [3] it was > 25 µg/mL; in assay [4], > 100 µg/mL.

Consider `CC(C)c1cc2c(cc1O)[C@@]1(C)CCC[C@@](C)(C(=O)O)[C@@H]1CC2`, for which the IC50 in assay [1] was > 100 µg/mL; in assay [2] it was > 25 µg/mL; in assay [3], > 25 µg/mL; in assay [4], 63 µg/mL (≈ 199 µM).

Turning to `CCOC(C)(C)c1ccc2c(c1)CC[C@H]1[C@](C)(C(=O)O)CCC[C@]21C` [ABIESADINE P], the IC50 in assay [1] is > 100 µg/mL; in assay [2], > 25 µg/mL; in assay [3], > 25 µg/mL; in assay [4], 94.1 µg/mL (≈ 273 µM).

`CC(C)c1ccc2c(c1)[C@H](O)C[C@H]1[C@](C)(COC(=O)CCC(=O)O)CCC[C@]21C` [ABIESADINE F]: the IC50 in assay [1] was > 100 µg/mL; in assay [2] it was > 25 µg/mL; in assay [3], > 25 µg/mL; in assay [4], > 100 µg/mL.

In the case of `CC(C)(O)c1ccc2c(c1)CC[C@H]1[C@](C)(CO)CCC[C@]21C`, the IC50 in assay [1] is > 100 µg/mL; in assay [2], > 25 µg/mL; in assay [3], > 25 µg/mL; in assay [4], > 100 µg/mL.

In the case of `CC(C)c1ccc2c(c1)CC[C@H]1[C@](C)(C(=O)O)CCC[C@]21C` [DEHYDROABIETIC ACID], the IC50 in assay [1] is > 100 µg/mL; in assay [2] it was > 25 µg/mL; in assay [3], > 25 µg/mL; in assay [4], 42.7 µg/mL (≈ 142 µM).

On to `CC(C)c1ccc2c(c1)C(=O)C[C@H]1[C@](C)(CO)CCC[C@]21C`, for which the IC50 in assay [1] was > 100 µg/mL; in assay [2] it was > 25 µg/mL; in assay [3], > 25 µg/mL; in assay [4], > 100 µg/mL.

Regarding `CC(C)(O)c1ccc2c(c1)[C@@H](O)C[C@H]1[C@](C)(C(=O)O)CCC[C@]21C`, the IC50 was > 100 µg/mL in assay [1], > 25 µg/mL in assay [2], > 25 µg/mL in assay [3] and > 100 µg/mL in assay [4].
